In patent EP0896002A1, “CHIMERIC PROTEINS, HETERODIMER COMPLEXES THEREOF AND SUBSTITUTE FOR PLATELET” (TORAY INDUSTRIES, INC., priority 1997, dated 1998):
Like-named read-outs stand apart in the source and are kept apart here.

Target: T1, α4·IgG heavy chain-β1·IgG heavy chain chimeric protein heterodimer complex (integrin α4β1; sequence Nos. 1 and 2) (Homo sapiens, UniProt P05556+P13612)
T1 construct: made in house; culture supernatant used in the assay
Experiment: Inhibition of the binding of the α4·IgG heavy chain-β1·IgG heavy chain chimeric protein heterodimer complex to solid-phase CS-1-IgG (peptide fragment of fibronectin), ELISA-type detection at 490 nm
Conditions: for inhibition at 100 µg/mL: compound concentration 100 μg/ml; for inhibition at 100 µg/mL / inhibition at 50 µg/mL: read-out: Inhibition rate (%); for IC50: binding assay system of Example 9: binding to CS-1-IgG, cyclic phage-library peptides, read-out: Inhibitory activity IC50
Protocol: At first, according to the said report (Humphries, M. J. et al., J. Biol. Chem., 262, 6886-6892 (1987)), the peptide fragment of sequence No. 3 (CS-1 peptide) was bound to rabbit IgG (Sigma), to prepare CS-1-IgG. The CS-1-IgG was diluted by PBS(-), and put in a 96-well immunoplate (NUNC) by 100 µl/well, and allowed to stand at 4°C for 16 hours, to be formed as a solid phase on the plate.
After completion of standing, the surface of the plate was washed with PBS(-) twice and treated with denatured 1% BSA(heat-natured at 80°C for 10 minutes)-PBS solution ( 300 µl/well) at 4°C for 3 hours to block the nonspecific reaction. Then, the solid phase CS-1-IgG and the CHO culture supernatant (100 µl) containing α4·IgG heavy chain-β1·IgG heavy chain chimeric protein heterodimer complex were reacted with each other at 30°C for 3 hours. The non-bound α4·IgG heavy chain-β1·IgG heavy chain chimeric protein heterodimer complex was removed by washing with 0.1% BSA-containing TBS buffer (150 mM NaCl, 25 mM Tris-HCl, 1 mM MnCl2, pH 7.4) twice, and the bound α4·IgG heavy chain-β1·IgG heavy chain chimeric protein heterodimer complex was detected by biotin labeled anti-human IgG antibody (Vector) as the primary antibody and avidin labeled horseradish peroxidase (Sigma) as the secondary antibody. The surface of the plate was washed with the TBS buffer. Orthophenylenediamine was added as a substrate to it for color development, and the absorbance at 490 nm were measured.
The all peptides were synthesized by a peptide synthesizer. The peptide and 100 µl of CHO cultured supernatant solution containing αα4·IgG heavy chain-β1·IgG heavy chain chimeric protein heterodimer complex were mixed at room temperature for 20 minutes, and the binding to CS-1-IgG was determined according to the method in Example 9.
At first, α4·IgG heavy chain-β1·IgG heavy chain chimeric protein heterodimer complex purified in Example 6, or human IgG was prepared at a proper concentration by PBS (-) and was coated on a plastic plate at 4°C for 16 hours, being formed as a solid phase on a plastic plate. Then, according to a report (Cott, J. K. and Smoth, G. P., Science, 249, 386-390 (1990)), a phage peptide library in which a random six amino acid residues were cyclyzed by the disulfide bond of cysteine at both the ends was prepared and suspended in 0.1% BSA-containing TBS buffer. The phage peptide library was reacted with human IgG at 30°C for 3 hours, to absorb phage peptides capable of being bound to IgG. Then, the non-absorbed phases were reacted with α4·IgG heavy chain-β1·IgG heavy chain chimeric protein heterodimer complex at 30°C for 3 hours, and the reaction mixture was washed with 0.1% BSA-containing TBS buffer twice to remove the phage peptides incapable of being bound to the heterodimer complex. Only the phage peptides capable of being bound were collected after elution with 0.1M glycine-hydrochloric acid (pH 2.2). After collection, the phage was amplified and the above mentioned binding operation was repeated further twice. The only the phage peptides capable of being bound to the heterodimer complex were selectively concentrated. In the final elution operation, phage peptides capable of being bound to the heterodimer complex were eluted using 10 mM EDTA and 0.1M glycine-hydrochloric acid in two steps, and the amino acid sequences of the respective peptides were analyzed. Furthermore, they were examined using the binding assay system of Example 9, and the IC50 values of the four peptide sequences showing binding inhibitory activity are shown in Table 1.
Reagents and reported compounds were picked up at random, adjusted to a final concentration of 50 or 100 µg/ml, and added to the binding determination system in Example 9. Compounds showing inhibitory activity were obtained. […]

[1] = binding determination system of Example 9 (CS-1-IgG)

T1 sequence (P13612 35-977 limits assumed, change not shown): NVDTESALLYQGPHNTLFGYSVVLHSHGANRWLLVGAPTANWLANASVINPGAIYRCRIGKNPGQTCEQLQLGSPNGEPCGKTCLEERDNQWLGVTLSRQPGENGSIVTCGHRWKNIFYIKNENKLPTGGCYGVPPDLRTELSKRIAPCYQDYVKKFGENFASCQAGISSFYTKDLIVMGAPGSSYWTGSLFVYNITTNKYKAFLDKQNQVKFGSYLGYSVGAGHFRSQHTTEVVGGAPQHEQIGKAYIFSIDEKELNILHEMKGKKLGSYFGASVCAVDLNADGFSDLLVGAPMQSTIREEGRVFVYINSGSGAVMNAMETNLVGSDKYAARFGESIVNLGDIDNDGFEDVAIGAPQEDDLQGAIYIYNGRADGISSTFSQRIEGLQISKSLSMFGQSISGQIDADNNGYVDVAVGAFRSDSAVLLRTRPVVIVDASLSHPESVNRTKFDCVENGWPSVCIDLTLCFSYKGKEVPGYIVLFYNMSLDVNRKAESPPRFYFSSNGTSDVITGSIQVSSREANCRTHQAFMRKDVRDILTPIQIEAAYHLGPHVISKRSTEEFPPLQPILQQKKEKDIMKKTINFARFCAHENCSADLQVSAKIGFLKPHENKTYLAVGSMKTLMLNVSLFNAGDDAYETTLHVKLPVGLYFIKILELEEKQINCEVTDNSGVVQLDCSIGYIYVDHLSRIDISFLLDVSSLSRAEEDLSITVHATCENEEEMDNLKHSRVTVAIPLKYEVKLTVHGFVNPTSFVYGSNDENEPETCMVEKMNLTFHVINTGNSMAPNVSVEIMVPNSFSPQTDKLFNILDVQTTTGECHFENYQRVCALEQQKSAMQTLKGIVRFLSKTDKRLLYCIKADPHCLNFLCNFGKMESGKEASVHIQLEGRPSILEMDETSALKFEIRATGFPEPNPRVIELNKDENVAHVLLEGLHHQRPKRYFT
T1 sequence (P05556 21-728 limits assumed, change not shown): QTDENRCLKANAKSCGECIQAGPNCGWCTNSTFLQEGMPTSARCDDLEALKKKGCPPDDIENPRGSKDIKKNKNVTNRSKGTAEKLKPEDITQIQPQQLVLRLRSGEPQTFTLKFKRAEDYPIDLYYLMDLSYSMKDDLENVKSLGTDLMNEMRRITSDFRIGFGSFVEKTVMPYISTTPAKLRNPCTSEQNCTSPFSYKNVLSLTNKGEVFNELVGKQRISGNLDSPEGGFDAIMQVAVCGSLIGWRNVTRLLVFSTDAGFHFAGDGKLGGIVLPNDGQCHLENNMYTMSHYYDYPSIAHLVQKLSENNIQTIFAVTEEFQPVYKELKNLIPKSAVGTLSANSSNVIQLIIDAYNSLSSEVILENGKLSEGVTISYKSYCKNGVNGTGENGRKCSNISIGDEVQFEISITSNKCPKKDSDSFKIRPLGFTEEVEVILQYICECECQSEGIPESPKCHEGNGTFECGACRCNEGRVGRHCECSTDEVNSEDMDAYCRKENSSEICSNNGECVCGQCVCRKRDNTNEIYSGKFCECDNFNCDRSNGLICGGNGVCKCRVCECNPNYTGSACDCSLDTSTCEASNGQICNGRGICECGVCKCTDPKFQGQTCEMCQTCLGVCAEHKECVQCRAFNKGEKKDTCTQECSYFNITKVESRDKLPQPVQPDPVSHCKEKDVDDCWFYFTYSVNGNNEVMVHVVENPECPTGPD
T1 sequence (P01857 99-330 partner limits assumed): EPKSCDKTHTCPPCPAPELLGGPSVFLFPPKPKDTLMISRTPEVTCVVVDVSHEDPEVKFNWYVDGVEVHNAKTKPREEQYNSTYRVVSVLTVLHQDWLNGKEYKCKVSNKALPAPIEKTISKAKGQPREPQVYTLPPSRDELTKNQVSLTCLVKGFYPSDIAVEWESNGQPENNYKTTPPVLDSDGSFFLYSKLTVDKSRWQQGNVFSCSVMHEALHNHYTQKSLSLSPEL

O=C(O)CC12CC3CC(CC(C3)C1)C2 [1-Adamantaneacetic acid]
inhibition at 100 µg/mL [1]: 65%

CC(C)(S)[C@@H](N)C(=O)O [D-Penicillamine]
inhibition at 50 µg/mL: 51%

C#C[C@]1(O)CC[C@H]2[C@@H]3CCC4=C(CCC(=O)C4)[C@H]3CC[C@@]21C [Norethynodrel]
inhibition at 50 µg/mL (compound concentration 50 μg/ml, binding determination system of Example 9 (CS-1-IgG)): 28%

O=C(O)CCCc1ccc2ccccc2c1 [γ-2-Naphtyl butyric acid, γ-2-Naphthyl butyric acid]
inhibition at 100 µg/mL [1]: 37%

Cys* Gly Leu Gln Ala Leu Pro Cys* (GLQALPC; printed: Gly Leu Gln Ala Leu Pro Cys) [Sequence No. 30]
IC50: 10000 nM

Cys* Ile Pro Glu Leu Ile Val Cys* (IPELIVC; printed: Ile Pro Glu Leu Ile Val Cys) [Sequence No. 24]
IC50: 1200 nM

Cys* Leu Arg Tyr Ser Val Pro Cys* (LRYSVPC; printed: Leu Arg Tyr Ser Val Pro Cys) [Sequence No. 28]
IC50: 1800 nM

Cys* Met Arg Tyr Thr Ser Ala Cys* (MRYTSAC; printed: Met Arg Tyr Thr Ser Ala Cys) [Sequence No. 25]
IC50: 2300 nM
